Test results: the supplement of paper PMC11628255, “Interference of metal ions on the bioluminescent signal of firefly, Renilla, and NanoLuc luciferases in high-throughput screening assays” (Frontiers in Chemistry, 2024)

How the values were obtained:
Assay in all cases: normalised percent inhibition of luminescence (vs positive and negative controls); higher = stronger inhibition
[1] = test system: NanoLuc luciferase (NLuc)
Description: (§1)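 Concentration-response (>=11 concentrations) of metal salts on purified FLuc, NLuc or RLuc luminescence in screening (SC) or 100 mM HEPES (H) buffer; salt pre-incubated with enzyme 10 min at RT, read 10 min after substrate. Normalised percent inhibition vs plate positive (PTC-124, isradipine, BTS) and DMSO negative controls; triplicate wells.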

[2] = test system: firefly luciferase (FLuc)
Description: as §1

[3] = test system: Renilla luciferase (RLuc)
Description: as §1

O=[N+]([O-])[O-].O=[N+]([O-])[O-].O=[N+]([O-])[O-].[Ga+3] [gallium(III) nitrate]
normalised percent inhibition [%]
Settings	100 mM HEPES buffer	screening conditions buffer
[1], metal salt concentration 0.002 mM	–	3.99
[1], metal salt concentration 0.005 mM	–	6.69
[1], metal salt concentration 0.01 mM	–	2.43
[1], metal salt concentration 0.02 mM	–	4.43
[1], metal salt concentration 0.05 mM	–	6.6
[1], metal salt concentration 0.1 mM	–	7.81
[1], metal salt concentration 0.2 mM	–	8.25
[1], metal salt concentration 0.5 mM	–	12.8
[1], metal salt concentration 1 mM	–	35
[1], metal salt concentration 2.5 mM	–	89.2
[1], metal salt concentration 5 mM	–	120
[2], metal salt concentration 0.0001 mM	-32.2	19.5
[2], metal salt concentration 0.00025 mM	-34.5	-10.2
[2], metal salt concentration 0.0005 mM	-31.8	10
[2], metal salt concentration 0.001 mM	-39.5	-11.4
[2], metal salt concentration 0.01 mM	27.3	–
[2], metal salt concentration 0.025 mM	90.2	-13.5
[2], metal salt concentration 0.05 mM	98.3	–
[2], metal salt concentration 0.1 mM	99.28	–
[2], metal salt concentration 0.5 mM	99.8	–
[2], metal salt concentration 1 mM	98.9	–
[2], metal salt concentration 2.5 mM	99.5	–
[2], metal salt concentration 5 mM	100.3	–
[3], metal salt concentration 0.002 mM	–	-6.33
[3], metal salt concentration 0.005 mM	–	-7.44
[3], metal salt concentration 0.01 mM	–	-4.58
[3], metal salt concentration 0.02 mM	–	-6.17
[3], metal salt concentration 0.05 mM	–	-6.25
[3], metal salt concentration 0.1 mM	–	-7.99
[3], metal salt concentration 0.2 mM	–	-8.55
[3], metal salt concentration 0.5 mM	–	-5.45
[3], metal salt concentration 1 mM	–	-8.55
[3], metal salt concentration 2.5 mM	–	-0.965
[3], metal salt concentration 5 mM	–	71.8

O=[N+]([O-])[O-].O=[N+]([O-])[O-].[Cu+2] [copper(II) nitrate]
normalised percent inhibition [%]
Settings	[1]	[2]	[3]
metal salt concentration 0.0001 mM, 100 mM HEPES buffer	-0.372	87.3	-51.9
metal salt concentration 0.00025 mM, 100 mM HEPES buffer	-0.297	98.97	-48.5
metal salt concentration 0.0005 mM, 100 mM HEPES buffer	1.75	100.2	-45.4
metal salt concentration 0.001 mM, 100 mM HEPES buffer	0.0805	100.5	-40
metal salt concentration 0.002 mM, screening conditions buffer	14.1	–	-3.55
metal salt concentration 0.005 mM, screening conditions buffer	18.8	–	-13.6
metal salt concentration 0.01 mM, 100 mM HEPES buffer	7.71	–	62.8
metal salt concentration 0.01 mM, screening conditions buffer	65.1	–	-1.01
metal salt concentration 0.02 mM, screening conditions buffer	133	–	-23.7
metal salt concentration 0.025 mM, 100 mM HEPES buffer	59.8	100.3	105
metal salt concentration 0.05 mM, 100 mM HEPES buffer	95.4	100.6	106
metal salt concentration 0.05 mM, screening conditions buffer	135.6	–	-13
metal salt concentration 0.1 mM, 100 mM HEPES buffer	99.6	100.5	106.6
metal salt concentration 0.1 mM, screening conditions buffer	136.5	–	-8.47
metal salt concentration 0.2 mM, screening conditions buffer	136.6	–	105.7
metal salt concentration 0.5 mM, 100 mM HEPES buffer	101.5	100.5	105
metal salt concentration 0.5 mM, screening conditions buffer	137.2	–	107
metal salt concentration 1 mM, 100 mM HEPES buffer	101.9	100.4	–
metal salt concentration 1 mM, screening conditions buffer	137.4	–	105.8
metal salt concentration 2.5 mM, 100 mM HEPES buffer	101	100.4	–
metal salt concentration 2.5 mM, screening conditions buffer	137.3	–	105.7
metal salt concentration 5 mM, 100 mM HEPES buffer	102.11	99.95	–
metal salt concentration 5 mM, screening conditions buffer	137.49	–	106.3
